From US20250129078A1, “ERBB2 INHIBITORS” (Cogent Biosciences, Inc., priority 2023, published 2025)
Counter-ions that a name gives are not always drawn.

Key:
ErbB2 V777L = ErbB2 V777L (Homo sapiens (Human), UniProt P04626, V777L); assay: ErbB enzyme assay (CisBio HTRF-KinEASE-TK), ErbB2 V777L; assay type: biochemical
In short: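 HTRF KinEASE-TK tyrosine-kinase read-out of substrate phosphorylation after a final 1 h at ambient temperature, from the 655/620 nm emission ratio.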

EGFR WT = EGFR WT (Homo sapiens (Human), UniProt P00533); assay: ErbB enzyme assay (CisBio HTRF-KinEASE-TK), EGFR WT; assay type: biochemical; details: ATP at Km (25 μM), 1 h incubation
EGFR WT, sequence (P00533 25-1210): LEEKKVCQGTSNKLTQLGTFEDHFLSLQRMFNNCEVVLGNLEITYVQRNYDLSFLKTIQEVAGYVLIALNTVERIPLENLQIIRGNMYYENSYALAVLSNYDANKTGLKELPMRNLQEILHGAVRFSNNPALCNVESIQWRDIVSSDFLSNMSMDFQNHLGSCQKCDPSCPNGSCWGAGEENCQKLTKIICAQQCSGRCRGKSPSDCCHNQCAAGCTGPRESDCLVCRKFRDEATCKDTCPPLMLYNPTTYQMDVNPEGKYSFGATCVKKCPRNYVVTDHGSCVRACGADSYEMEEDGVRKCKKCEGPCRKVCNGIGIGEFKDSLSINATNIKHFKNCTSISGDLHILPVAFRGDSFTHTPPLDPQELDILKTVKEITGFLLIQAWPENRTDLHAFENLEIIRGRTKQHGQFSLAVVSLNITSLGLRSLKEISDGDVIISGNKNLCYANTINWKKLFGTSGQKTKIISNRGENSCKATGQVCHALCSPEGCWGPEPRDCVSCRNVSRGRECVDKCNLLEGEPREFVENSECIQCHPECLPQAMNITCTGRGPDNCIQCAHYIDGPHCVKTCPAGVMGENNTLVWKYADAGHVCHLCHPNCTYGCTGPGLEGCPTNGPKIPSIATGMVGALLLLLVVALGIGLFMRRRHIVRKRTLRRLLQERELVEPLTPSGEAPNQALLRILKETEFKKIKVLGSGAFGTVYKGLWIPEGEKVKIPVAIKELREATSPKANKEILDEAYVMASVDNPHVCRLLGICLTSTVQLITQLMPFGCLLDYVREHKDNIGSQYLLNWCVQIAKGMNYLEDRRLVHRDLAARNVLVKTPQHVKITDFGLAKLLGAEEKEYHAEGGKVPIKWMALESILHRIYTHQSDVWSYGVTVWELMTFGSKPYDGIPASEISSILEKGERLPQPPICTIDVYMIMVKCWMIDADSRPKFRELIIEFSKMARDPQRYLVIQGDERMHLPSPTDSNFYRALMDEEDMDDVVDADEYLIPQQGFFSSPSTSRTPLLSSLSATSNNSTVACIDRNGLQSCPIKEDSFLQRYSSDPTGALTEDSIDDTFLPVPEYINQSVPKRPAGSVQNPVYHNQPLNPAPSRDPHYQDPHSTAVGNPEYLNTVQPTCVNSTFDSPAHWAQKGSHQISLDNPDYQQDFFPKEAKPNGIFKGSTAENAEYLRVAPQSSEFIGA
In short: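 Tyrosine kinase HTRF, 1 h RT reaction → quench (Sa-XL665/TK-Ab-Cryptate) → 1 h RT → 655/620 ratio.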

ErbB2 V777L, sequence (P04626 23-1255 V777L): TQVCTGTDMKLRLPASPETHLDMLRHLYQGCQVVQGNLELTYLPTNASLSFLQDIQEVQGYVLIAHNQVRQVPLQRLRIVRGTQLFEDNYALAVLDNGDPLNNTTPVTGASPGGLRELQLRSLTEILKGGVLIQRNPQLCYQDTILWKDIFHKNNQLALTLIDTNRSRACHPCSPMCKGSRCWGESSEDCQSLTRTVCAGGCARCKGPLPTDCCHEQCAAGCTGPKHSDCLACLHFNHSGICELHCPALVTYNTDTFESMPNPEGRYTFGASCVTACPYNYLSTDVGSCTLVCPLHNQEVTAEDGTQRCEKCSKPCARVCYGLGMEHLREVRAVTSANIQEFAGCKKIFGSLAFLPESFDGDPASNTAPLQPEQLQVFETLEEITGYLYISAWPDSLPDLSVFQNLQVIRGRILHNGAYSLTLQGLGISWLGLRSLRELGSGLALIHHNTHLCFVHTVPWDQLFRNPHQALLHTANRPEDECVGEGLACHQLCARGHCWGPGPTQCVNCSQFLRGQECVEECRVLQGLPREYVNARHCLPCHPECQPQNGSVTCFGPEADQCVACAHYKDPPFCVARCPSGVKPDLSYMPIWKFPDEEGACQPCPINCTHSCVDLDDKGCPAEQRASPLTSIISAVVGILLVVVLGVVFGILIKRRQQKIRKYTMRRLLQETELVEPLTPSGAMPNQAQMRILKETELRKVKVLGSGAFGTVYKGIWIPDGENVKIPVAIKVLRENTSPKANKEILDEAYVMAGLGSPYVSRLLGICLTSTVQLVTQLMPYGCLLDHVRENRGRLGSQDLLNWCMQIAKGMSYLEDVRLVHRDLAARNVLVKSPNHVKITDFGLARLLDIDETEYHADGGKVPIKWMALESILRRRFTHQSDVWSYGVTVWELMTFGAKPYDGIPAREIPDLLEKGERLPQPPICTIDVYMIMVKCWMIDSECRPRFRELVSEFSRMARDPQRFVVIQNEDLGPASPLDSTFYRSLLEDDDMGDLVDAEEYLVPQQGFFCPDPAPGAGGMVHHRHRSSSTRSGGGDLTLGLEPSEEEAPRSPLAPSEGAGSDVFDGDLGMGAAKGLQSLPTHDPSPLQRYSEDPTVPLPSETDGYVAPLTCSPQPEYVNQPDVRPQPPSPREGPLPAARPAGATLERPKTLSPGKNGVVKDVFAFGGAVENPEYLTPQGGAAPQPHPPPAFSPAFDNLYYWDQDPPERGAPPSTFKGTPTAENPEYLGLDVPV

| SMILES | IC50 (ErbB2 V777L) [nM] | IC50 (EGFR WT) [nM] |
| --- | --- | --- |
| C=C(C)C(=O)N1CCN(c2ncc3ncnc(Nc4ccc(Oc5ccc6c(c5)nnn6C)c(C)c4)c3n2)CC1 [Compound 35, 2-methyl-1-(4-(8-((3-methyl-4-((1-methyl-1H-benzo[d][1,2,3]triazol-5-yl)oxy)phenyl)amino)pyrimido [5,4-d]pyrimidin-2-y1)piperazin-1-yl)prop-2-en-1-one] | 500 to 1000 | ≥ 1000 |
| C=CC(=O)N1C2CCC1CN(c1ncc3ncnc(Nc4cc(C)c(Oc5ccc6c(c5)ncn6C(F)F)cc4OC)c3n1)C2 [Compound 40, 1-(3-(8-((4-((1-(difluoromethyl)-1H-benzo[d]imidazol-5-yl)oxy)-2-methoxy-5-methylphenyl)amino)pyrimido[5,4-d]pyrimidin-2-yl)-3,8-diazabicyclo[3.2.1]octan-8-yl)prop-2-en-1-one 2,2,2-trifluoroacetate] | 100 to 500 | 500 to 1000 |
| C=CC(=O)N1C[C@@H]2C[C@H]1CN(c1ncc3ncnc(Nc4ccc(Oc5cc(F)c6c(c5)ncn6C)c(C)c4F)c3n1)C2 [Compound 175, 1-((1R,5S)-3-(8-((2-fluoro-4-((7-fluoro-1-methyl-1H-benzo[d]imidazol-5-y1)oxy)-3-methylphenyl)amino)pyrimido[5,4-d]pyrimidin-2-yl)-3,6-diazabicyclo[3.2.1]octan-6-yl)prop-2-en-1-one] | 100 to 500 | 50 to 100 |
| C=CC(=O)N1CCCN(c2ccc3ncnc(Nc4ccc(Oc5ccc6c(c5)nnn6C)c(C)c4)c3n2)C[C@@H]1C [Compound 284, (S)-1-(2-methyl-4-(4-((3-methyl-4-((1-methyl-1H-benzo[d][1,2,3]triazol-5-yl)oxy)phenyl)amino)pyrido[3,2-d]pyrimidin-6-yl)-1,4-diazepan-1-yl)prop-2-en-1-one] | 500 to 1000 | ≥ 1000 |
| C=CC(=O)N1CCN(c2ncc3ncnc(Nc4ccc(Oc5cc6nnn(C)c6cn5)c(C)c4)c3n2)CC1 [Compound 132, 1-(4-(8-((3-methyl-4-((3-methyl-3H-[1,2,3]triazolo[4,5-c]pyridin-6-yl)oxy)phenyl)amino)pyrimido[5,4-d]pyrimidin-2-yl)piperazin-1-yl)prop-2-en-1-one] | 100 to 500 | 100 to 500 |
| C=CC(=O)N[C@@H]1CCCN(c2ccc3ncnc(Nc4ccc(Oc5ccc6c(c5)nnn6C)c(C)c4F)c3n2)C1 [Compound 260, (R)-N-(1-(4-((2-fluoro-3-methyl-4-((1-methyl-1H-benzo[d][1,2,3]triazol-5-yl)oxy)phenyl)amino)pyrido[3,2-d]pyrimidin-6-yl)piperidin-3-yl)acrylamide] | 100 to 500 | 100 to 500 |
| C=CC(=O)N1CCN(c2ncc3ncnc(Nc4ccc(Oc5ccn6nc(C)nc6c5)c(C)c4)c3n2)C[C@H]1C [Compound 139] | 100 to 500 | 100 to 500 |
| C=CC(=O)N1CCN(c2ccc3ncnc(Nc4ccc(Oc5ccc6c(c5)nnn6C)c(C)c4F)c3n2)C[C@H]1C(C)C [Compound 259, (R)-1-(4-(4-((2-fluoro-3-methyl-4-((1-methyl-1H-benzo[d][1,2,3]triazol-5-yl)oxy)phenyl)amino)pyrido[3,2-d]pyrimidin-6-yl)-2-isopropylpiperazin-1-yl)prop-2-en-1-one] | 500 to 1000 | ≥ 1000 |
| C=CC(=O)N(C)C1C2CN(c3ncc4ncnc(Nc5ccc(Oc6ccc7c(c6)nnn7C)c(C)c5F)c4n3)CC21 (stereo not shown) [Compound 226, N-(3-(8-((2-fluoro-3-methyl-4-((1-methyl-1H-benzo[d][1,2,3]triazol-5-yl)oxy)phenyl)amino)pyrimido[5,4-d]pyrimidin-2-yl)-3-azabicyclo[3.1.0]hexan-6-yl)-N-methylacrylamide] | 100 to 500 | 100 to 500 |
| C=CC(=O)N1CCC(Oc2ncc3ncnc(Nc4ccc(Oc5ccn6ncnc6c5)c(C)c4)c3n2)C1 (stereo not shown) [Compound 377, 1-(3-((8-((4-([1,2,4]triazolo[1,5-a]pyridin-7-yloxy)-3-methylphenyl)amino)pyrimido[5,4-d]pyrimidin-2-yl)oxy)pyrrolidin-1-yl)prop-2-en-1-one] | 100 to 500 | 100 to 500 |
| C=CC(=O)N1CCN(c2ccc3ncnc(Nc4ccc(Oc5ccc6c(c5)nnn6C(F)F)c(C)c4)c3n2)CC1(C)C [Compound 324, 1-(4-(4-((4-((1-(difluoromethyl)-1H-benzo[d][1,2,3]triazol-5-yl)oxy)-3-methylphenyl)amino)pyrido[3,2-d]pyrimidin-6-yl)-2,2-dimethylpiperazin-1-yl)prop-2-en-1-one] | 100 to 500 | 100 to 500 |
| C=CC(=O)N1CCN(c2ncc3ncnc(Nc4cc(C)c(Oc5ccc6c(c5)nnn6C)cc4OC)c3n2)CC1 [Compound 12, 1-(4-(8-((2-methoxy-5-methyl-4-((1-methyl-1H-benzo[d][1,2,3]triazol-5-yl)oxy)phenyl)amino)pyrimido[5,4-d]pyrimidin-2-yl)piperazin-1-yl)prop-2-en-1-one 2,2,2-trifluoroacetate] | 100 to 500 | 100 to 500 |
| C=CC(=O)N[C@@H]1CCCN(c2ccc3ncnc(Nc4ccc(Oc5ccc6c(c5)nnn6C)c(C)c4F)c3n2)[C@@H]1C [Compound 268, N-((2R,3R)-1-(4-((2-fluoro-3-methyl-4-((1-methyl-1H-benzo[d][1,2,3]triazol-5-yl)oxy)phenyl)amino)pyrido[3,2-d]pyrimidin-6-yl)-2-methylpiperidin-3-yl)acrylamide] | 50 to 100 | 100 to 500 |
| C=C(F)C(=O)N1CCN(c2ccc3ncnc(Nc4ccc(Oc5ccc6c(c5)nnn6C)c(C)c4)c3n2)CC1 [Compound 245, 2-fluoro-1-(4-(4-((3-methyl-4-((1-methyl-1H-benzo[d][1,2,3]triazol-5-yl)oxy)phenyl)amino)pyrido[3,2-d]pyrimidin-6-yl)piperazin-1-yl)prop-2-en-1-one] | 100 to 500 | 500 to 1000 |
| C=CC(=O)N1CCN(c2ncc3ncnc(Nc4ccc(Oc5ccc6c(c5)nnn6C)cc4F)c3n2)CC1 [Compound 22, 1-(4-(8-((2-fluoro-4-((1-methyl-1H-benzo[d][1,2,3]triazol-5-yl)oxy)phenyl)amino)pyrimido[5,4-d]pyrimidin-2-yl)piperazin-1-yl)prop-2-en-1-one] | 100 to 500 | 100 to 500 |

Now from value to compound:

| IC50 (ErbB2 V777L) [nM] | IC50 (EGFR WT) [nM] | SMILES |
| --- | --- | --- |
| 50 to 100 | < 50 | C=CC(=O)N1CC(F)(F)C12CN(c1ncc3ncnc(Nc4ccc(Oc5ccc6c(c5)nnn6C)c(C)c4)c3n1)C2 [Compound 221, 1-(3,3-difluoro-6-(8-((3-methyl-4-((1-methyl-1H-benzo[d][1,2,3]triazol-5-yl)oxy)phenyl)amino)pyrimido[5,4-d]pyrimidin-2-yl)-1,6-diazaspiro[3.3]heptan-1-yl)prop-2-en-1-one] |
| 50 to 100 | < 50 | C=CC(=O)N1CCCN(c2ncc3ncnc(Nc4ccc(Oc5cc(F)c6c(c5)ncn6C)c(C)c4F)c3n2)CC1 [Compound 112, 1-(4-(8-((2-fluoro-4-((7-fluoro-1-methyl-1H-benzo[d]imidazol-5-yl)oxy)-3-methylphenyl)amino)pyrimido[5,4-d]pyrimidin-2-yl)-1,4-diazepan-1-yl)prop-2-en-1-one] |
| 50 to 100 | < 50 | C=CC(=O)N1CCN(c2ccc3ncnc(Nc4ccc(Oc5cc(F)c6c(c5)nnn6C)c(C)c4F)c3n2)CC1 [Compound 91, 1-(4-(4-((2-fluoro-4-((7-fluoro-1-methyl-1H-benzo[d][1,2,3]triazol-5-yl)oxy)-3-methylphenyl)amino)pyrido[3,2-d]pyrimidin-6-yl)piperazin-1-yl)prop-2-en-1-one] |
| 50 to 100 | 100 to 500 | C=CC(=O)N1CCN(c2ccc3ncnc(Nc4ccc(Oc5ccc6c(c5)ncn6C(F)F)c(C)c4F)c3n2)C[C@H]1C [Compound 253, (R)-1-(4-(4-((4-((1-(difluoromethyl)-1H-benzo[d]imidazol-5-yl)oxy)-2-fluoro-3-methylphenyl)amino)pyrido[3,2-d]pyrimidin-6-yl)-2-methylpiperazin-1-yl)prop-2-en-1-one] |
| 50 to 100 | < 50 | C=CC(=O)N1CC2CC1CN(c1ncc3ncnc(Nc4ccc(Oc5cc(F)c6c(c5)ncn6C)c(C)c4F)c3n1)C2 (stereo not shown) [Compound 147, 1-(3-(8-((2-fluoro-4-((7-fluoro-1-methyl-1H-benzo[d]imidazol-5-yl)oxy)-3-methylphenyl)amino)pyrimido[5,4-d]pyrimidin-2-y1)-3,6-diazabicyclo[3.2.1]octan-6-yl)prop-2-en-1-one] |
| 50 to 100 | 100 to 500 | C=CC(=O)N1CCN(c2ccc3ncnc(Nc4ccc(Oc5ccc6c(c5)nnn6C)c(C)c4F)c3n2)C[C@H]1C [Compound 246, (R)-1-(4-(4-((2-fluoro-3-methyl-4-((1-methyl-1H-benzo[d][1,2,3]triazol-5-yl)oxy)phenyl)amino)pyrido[3,2-d]pyrimidin-6-yl)-2-methylpiperazin-1-yl)prop-2-en-1-one] |
| 50 to 100 | 100 to 500 | C=CC(=O)N1C2C=C(c3ccc4ncnc(Nc5ccc(Oc6ccc7c(c6)nnn7C)c(C)c5)c4n3)CC1CC2 (stereo not shown) [Compound 409, 1-(3-(4-((3-methyl-4-((1-methyl-1H-benzo[d][1,2,3]triazol-5-yl)oxy)phenyl)amino)pyrido[3,2-d]pyrimidin-6-yl)-8-azabicyclo[3.2.1]oct-2-en-8-yl)prop-2-en-1-one trifluoroacetate] |
| 50 to 100 | 100 to 500 | C=CC(=O)N1CCN(c2ccc3ncnc(Nc4ccc(Oc5ccc6c(c5)nnn6C)c(C)c4)c3n2)C[C@H]1C1CC1 [Compound 335, (R)-1-(2-cyclopropyl-4-(4-((3-methyl-4-((1-methyl-1H-benzo[d][1,2,3]triazol-5-yl)oxy)phenyl)amino)pyrido[3,2-d]pyrimidin-6-yl)piperazin-1-yl)prop-2-en-1-one] |
